Experimental data taken from patent US20060100264A1, “3,3'-Diindolylmethane immune activating compositions” (priority 2004, published 2006).

Legend:
MHC-II = MHC-II expression in MCF-7 cells; format: cell-based, human
Text: In an analogous further experiment, we observed no effect of DIM or IFNγ on MHC-II expression in the MCF-7 cells.

GAS element = assay: Electrophoretic gel mobility shift assay, STAT1 binding to GAS element; format: cell-based, human; conditions: DIM pretreatment for various times, IFNγ 30 min
Protocol: An electrophoretic gel mobility shift assay was used to verify that the phosphorylated STAT1 was effectively activated to a dimer that could bind to the GAS element. The ^32P-labeled DNA probe containing a GAS sequence was incubated with nuclear extracts from cells pretreated with DIM for various times as indicated, and with IFNγ for 30 min. […] When samples were incubated with an antibody specific to STAT1, the band was super-shifted, confirming the identity of the protein binding to the labeled GAS probe.

TNF-α = assay: Serum TNF-α by ELISA in mice after DIM; format: in vivo; conditions: 30 μg/kg DIM orally
Protocol: We firstly investigated the effect of unsubstituted DIM on the production of IL-6, G-CSF, IL-12, TNF-α and IFNγ. A groups of 3 mice was given 30 μg/kg of unsubstituted DIM orally and then sacrificed at 1, 3, 5, 8, and 24 h after drug challenge. Serum was collected, pooled, and assayed for IL-6, G-CSF, IL-12 and TNF-α by ELISA. […] DIM produced an increase in circulating levels of G-CSF and TNF-α with the 3 h time point being maximal. […] DIM also stimulated IL-12 and kinetics were slightly different since the increased levels were sustained for at least 24 h.

[1] = tested on: 4GAS-Luc reporter (four repeats of the consensus GAS element); assay: 4GAS-Luc luciferase reporter in transiently transfected MCF-7 cells; format: cell-based, human; conditions: DIM 50 μM, IFNγ concentration dependent, maximum
Protocol: In a further experiment to examine whether the inducing effects of DIM are at the transcriptional level, the effect of DIM on activities of two luciferase reporter constructs, OAS-Luc (12) and 4GAS-Luc (13) was examined. OAS-Luc contains the promoter and 5′-flanking region (−972) of p69-OAS and GAS-Luc contains four repeats of the consensus GAS element. MCF-7 cells transiently transfected with these reporter constructs were treated with IFNγ, DIM, or a combination of both for 24 h. […] IFNγ induced transcriptional activity of this reporter in a concentration dependent manner to a maximum of about 1.8 fold, which is less than the response of the endogenous gene of about 5.0 fold. In marked contrast to the maximum effects of combined treatments of the inducers on endogenous gene expression (nearly 12-fold increase compared to vehicle treated cells), the reporter gene construct responded with less than a 3-fold increase over the controls.
Thus, treatment with DIM (50 μM) by itself again produced a 2 to 3-fold increase in activity of this reporter. IFNγ treatments, however, produced a robust concentration dependent increase in reporter activity to approximately 40-fold induction compared to vehicle treated controls. […]

[2] = tested on: oligoadenylate-synthase (OAS) family member protein 69 (p69-OAS); assay: p69-OAS mRNA expression in MCF-7 cells (microarray, Northern blot, RT-PCR); format: cell-based, human
Protocol: (§1) Immune response activating effects of the DIM analogs are examined with cell-based assays for cytokine and cytokine receptor expression. […] We also used a sensitive sandwich ELISA assay to examine levels of IFNγ in medium from confluent cultures of MCF-7 cells that were treated for up to 3 days. DIM derivatives confirmed to have immune response activating activity in our reporter and ELISA assays are subsequently screened in a whole animal cytokine production and Y. enterocolitica infection studies, as described below in Examples VIII and IX.
(§2) An initial cDNA gene expression microarray screen of human breast cancer MCF-7 cells treated with DIM, followed by confirmation of results using Northern blots and quantitative RT-PCR, established the transcriptional activation of IFNγ, IFNγ receptor (IFNGR1), oligoadenylate-synthase (OAS) family member protein 69 (p69-OAS), and interferon-inducible protein 56 (p56), a protein closely related to OAS. […] Maximum induction for IFNγ, IFNGR1, p69-OAS and p56 were 4.6, 3.8, 3.2 and 4.0 fold, respectively.

IFNGR1 protein = assay: Western blot analysis of IFNGR1 protein; format: cell-based, human
Protocol: IFNGR1 protein levels increased by approximately 7 fold after 24 h and persisted to 48 h compared to DMSO-treated controls.
Comparison of our results with DIM to our studies with I3C (27) show some distinct differences in the activity of DIM and its in vivo precursor in their effects on IFNγ signaling. […] Similar effects of DIM and I3C were also observed on cell proliferation and cell cycling. […] Thus, a strong level of induction (about 5 fold) was seen after only 6 hours of exposure to DIM, and the maximum induction was attained by 24 hours of treatment with this diindole. In contrast, receptor expression was increased by only about 3 fold following 24 hours of treatment with I3C, and appeared to reach the maximum induction only after about 48 hours of exposure. […] Indeed, we have shown previously that DIM accumulates in the nucleus of MCF-7 cultured cells treated with I3C (28).

IFNγ receptor (IFNGR1) = assay: IFNGR1 mRNA expression in DIM-treated MCF-7 cells (cDNA microarray, Northern blot, quantitative RT-PCR); format: cell-based, human
Protocol: as §1, §2

MCF-7 cells = assay: Cell proliferation over a 4-day treatment period; format: cell-based, human; conditions: 4-day treatment, heat-treated serum
Protocol: Functional consequences of the synergistic effects of DIM and IFNγ on gene expression were examined at the level of proliferation rates. Cell proliferation was measured over a 4-day treatment period with treatments with DIM, IFNγ, or both substances, and compared to a DMSO control. With heat-treated serum, IFNγ alone reduced cell proliferation by as much as 70% compared to controls. DIM treatments reduced proliferation by as much as 60%. […] These effects were accompanied by morphological changes characteristic of apoptosis.

[3] = tested on: HLA-A, HLA-B, HLA-C, β-microtubulin, TAP1 and TAP2; assay: RT-PCR of MHC-I components and transporters in MCF-7 cells; format: cell-based, human
Text: RT-PCR was used to examine the expression of the four major components of human MHC-I, including HLA-A, HLA-B, HLA-C, and β-microtubulin, as well as two important associated transporters, TAP1 and TAP2. […] As expected, the expressions of these genes were increased 2-8 fold by treatment with IFNγ.

IFNγ = IFNγ mRNA expression in DIM-treated MCF-7 cells (cDNA microarray, Northern blot, quantitative RT-PCR); format: cell-based, human
Protocol: as §1, §2

## c1ccc2c(Cc3c[nH]c4ccccc34)c[nH]c2c1 [DIM, 3,3′-Diindolylmethane]
MHC-II
  Effect on MHC-II expression: no effect
GAS element
  Band-shift of 32P-labeled GAS probe with nuclear extracts: did not produce a shifted band
TNF-α
  Time point of maximal circulating TNF-α: 3 h
[1]
  Induction of 4GAS-Luc reporter activity compared to vehicle treated controls: 2 to 3 fold
[2]; MCF-7 cells treated with DIM
  Maximum induction of p69-OAS mRNA: 3.2 fold
  Treatment time at which p69-OAS expression was fully induced: 6 h
[2]; MCF-7 cells, 48 h
  p69-OAS mRNA level at 48 h of treatment: remained elevated
IFNGR1 protein; DIM
  Maximum level of IFNGR1 protein induction: about 7 fold
  Time at which maximum IFNGR1 protein induction was attained: ≤ 24 h
IFNGR1 protein; after 6 hours of exposure to DIM
  IFNGR1 protein induction: about 5 fold
IFNGR1 protein; after 24 h of DIM, persisted to 48 h
  IFNGR1 protein level increase compared to DMSO-treated controls: approximately 7 fold
IFNγ receptor (IFNGR1); MCF-7 cells treated with DIM
  Maximum induction of IFNGR1 mRNA: 3.8 fold
  Treatment time at which maximum IFNGR-1 induction was reached: 48 h
IFNγ receptor (IFNGR1); MCF-7 cells, 48 h
  IFNGR1 mRNA level at 48 h of treatment: remained elevated
MCF-7 cells
  Reduction of cell proliferation compared to controls: ≤ 60%
[3]
  Expression levels of the six genes (MHC-I components, TAP1, TAP2) above vehicle/background: not significantly enhanced
IFNγ; MCF-7 cells treated with DIM
  Maximum induction of IFNγ mRNA: 4.6 fold
  Treatment time at which IFNγ expression was fully induced: 6 h
IFNγ; MCF-7 cells, 48 h
  IFNγ mRNA level following 48 h of DIM treatment: returned to near control levels
